Values joined by “and” are separate entries in the source; they are usually repeats but may differ in a detail not shown here. Equal entries are not always repeated. Where two headings read alike, the source gives them in different places. Peptide text beside a SMILES is read from it.
What was measured:
[1] = 30 min IV infusion
Description: Animals will be obtained from the Test Facility's colony of adult male cynomolgous monkeys (Macaca fascicularis) of Chinese origin. Animals will be weighed prior to dosing.
Animals will be fasted a minimum of 2 hours prior to procedures requiring the administration of ketamine anesthesia. The diet will also be supplemented with other nutrients by feeding items such as raisins or fresh fruits that are presented to the animal as part of an environmental enrichment program. Offering items known to cause diarrhea will be avoided.
Intravenous administration will be via 30 minute infusion into a temporary percutaneous catheter placed into a saphenous vein. Prior to and following dose administration, the catheter will be flushed with 0.5 mL saline prior to removal. All dosing syringes will be weighed prior to and following dosing.
Serial blood samples will be collected via femoral vein (cephalic or saphenous, as necessary). Approximately 1 mL blood samples will be collected into K2EDTA tubes.
Blood samples will be collected into K2EDTA tubes and stored on wet ice. Whole blood will be processed to plasma by centrifugation (2400-2700 rpm at 5° C.) within 30 minutes of collection. Plasma samples will be split into 2 equal aliquots and stored at −80° C. until analysis.
Prior to extraction, a known concentration of a mass-adjusted internal standard (IS) will be added to assess recovery and allow for quantitation. Purified samples will be further subjected to high-performance liquid chromatography (HPLC) using C18 300 or 130 angstrom columns prior to MS/MS analysis. Multiple charge states will be observed by MS, so MS/MS will be employed to enable multiple reaction monitoring (MRM) analyses to determine the most MRM transitions with the highest signal-to-noise gain. Compound plasma concentrations will be determined by comparing to and compensating with co-purified IS peak intensity and validated calibrated standard curves.
Toxicokinetic parameters will be calculated using non-compartmental methods as implemented in the Phoenix® WinNonlin® ver. 6.3 comprehensive TK/PK analysis software program (Pharsight Corporation; Mountain View, CA) using an IV infusion model. Toxicokinetic analysis will be conducted using a 30-minute intravenous infusion time. Therefore, 30 minutes will be added to each sample time point postdose to obtain nominal time for TK analysis. Nominal times and dosage levels will be used for all calculations. Values below the lower limit of quantitation (BLQ) will be assigned a value of zero for the toxicokinetic calculations. Microsoft® Excel® 2013 will be used for receipt of bioanalytical data, minor formatting, including setting BLQ values to “0”, transfer into WinNonlin® for TK analysis, and calculation of the mean when an approximated value will be excluded. All plasma concentration data from all animals will be included in the analysis. Graphical presentations will be performed using Prism® for Macintosh ver. 7.0a (GraphPad, Inc.; La Jolla, CA).

clinical = settings: human, plasma, iv, Plasma Concentration by Nominal Time from Start of Infusion; for level at 0.5 h: 0.50 h
[2] = mice
Description: Male CD-1 mice will be received from an approved vendor and allowed to acclimate for a minimum of two days. Fasting will be not required.
All dosing syringes will be weighed prior to and following dosing. IV doses will be administered as a slow bolus (over ˜30 seconds) via direct venipuncture of a tail vein. All animals will be observed at dosing and each scheduled collection. All abnormalities will be recorded.
Terminal blood samples will be collected via cardiac puncture following inhalation anesthesia.
Sample Processing and Storage: Blood samples will be collected into K2EDTA tubes and stored on wet ice. Whole blood will be processed to plasma by centrifugation (3500 rpm at 5° C.) within 30 minutes of collection. Plasma samples will be split into 2 equal aliquots and each transferred into 96 well plates (matrix tubes) and stored at −80° C. until analysis. Administered doses will be determined gravimetrically.
Pharmacokinetic parameters will be calculated using non-compartmental methods as implemented in the Phoenix® WinNonlin® ver. 6.3 comprehensive TK/PK analysis software program (Pharsight Corporation; Mountain View, CA) using an IV infusion model. Pharmacokinetic analysis will be conducted using a 30-minute intravenous infusion time. Therefore, 30 minutes will be added to each sample time point postdose to obtain nominal time for TK analysis. Nominal times and dosage levels will be used for all calculations. Values below the lower limit of quantitation (BLQ) will be assigned a value of zero for the pharmacokinetic calculations. Microsoft® Excel® 2013 will be used for receipt of bioanalytical data, minor formatting, including setting BLQ values to “0”, transfer into WinNonlin® for PK analysis, and calculation of the mean when an approximated value will be excluded. All plasma concentration data from all animals will be included in the analysis. Graphical presentations will be performed using Microsoft® Excel® 2013.

[3] = 0.05 mg/kg, Cohort 1, 0.05 mg/kg IV 1-hr infusion, individual subject
[4] = 0.05 mg/kg, Cohort 1, 0.05 mg/kg IV 1 hr infusion, individual subjects
[5] = 0.05 mg/kg, Mean, Cohort 1, 0.05 mg/kg IV 1-hr infusion, cohort mean
[6] = 0.05 mg/kg, Mean, Cohort 1, 0.05 mg/kg IV 1 hr infusion, cohort mean N 6
[7] = 0.5 mg/kg, Mean, Cohort 4, 0.5 mg/kg IV 2-hr infusion, cohort mean
[8] = 0.5 mg/kg, Mean, Cohort 4, 0.5 mg/kg IV, infusion 2 hours, cohort mean N 6
[9] = 1 mg/kg, Mean, Cohort 5, 1 mg/kg IV 4-hr infusion, cohort mean

Compound: CC(C)[C@H](NC(=O)[C@H](Cc1c[nH]c2ccccc12)NC(=O)[C@H](CCCNC(=N)N)NC(=O)[C@H](CCCNC(=N)N)NC(=O)[C@@H](NC(=O)[C@@H](NC(=O)[C@H](CCCNC(=N)N)NC(=O)[C@@H](NC(=O)[C@@H](NC(=O)[C@H](CCCNC(=N)N)NC(=O)[C@H](CCCNC(=N)N)NC(=O)[C@H](Cc1c[nH]c2ccccc12)NC(=O)[C@@H](NC(=O)[C@H](CCCNC(=N)N)NC(=O)[C@H](CCCNC(=N)N)NC(=O)[C@@H](NC(=O)[C@H](CCCNC(=N)N)NC(=O)[C@H](CCCNC(=N)N)NC(=O)[C@@H](NC(=O)[C@H](Cc1c[nH]c2ccccc12)NC(=O)[C@H](CCCNC(=N)N)NC(=O)[C@@H](N)CCCNC(=N)N)C(C)C)C(C)C)C(C)C)C(C)C)C(C)C)C(C)C)C(C)C)C(=O)N[C@@H](CCCNC(=N)N)C(=O)N[C@@H](CCCNC(=N)N)C(N)=O [SEQ ID NO: 1] (H-RRWVRRVRRVWRRVVRVVRRWVRR-NH2)
- AUCinf Extrapolated ([1]; 1 mg/kg, Mean of group): 10.0%
- CL ([1]; 1 mg/kg, Mean of group): 18.5 mL/min/kg
- Dose Normalized AUClast ([1]; 1 mg/kg, Mean of group): 983
- Dose Normalized Cmax ([1]; 1 mg/kg, Mean of group): 1710
- Vss ([1]; 1 mg/kg, Mean of group): 1.38 L/kg
- CL ([1]; 1 mg/kg, individual monkeys): 9.65 mL/min/kg
- Dose Normalized AUClast ([1]; 1 mg/kg, individual monkeys): 740 and 1610 and 595
- Dose Normalized Cmax ([1]; 1 mg/kg, individual monkeys): 1460 and 2660 and 997
- AUCinf Extrapolated ([1]; 3 mg/kg, Mean of group): 1.5%
- CL ([1]; 3 mg/kg, Mean of group): 7.18 mL/min/kg
- Dose Normalized AUClast ([1]; 3 mg/kg, Mean of group): 2530
- Dose Normalized Cmax ([1]; 3 mg/kg, Mean of group): 3450
- T1/2 ([1]; 3 mg/kg, Mean of group): 5.2 h
- Tmax ([1]; 3 mg/kg, Mean of group): 6.6 min
- AUCinf Extrapolated ([1]; 3 mg/kg, individual monkeys): 1.2% and 2.3% and 1.1%
- Dose Normalized AUClast ([1]; 3 mg/kg, individual monkeys): 2220 and 3660 and 1710
- Dose Normalized Cmax ([1]; 3 mg/kg, individual monkeys): 2280 and 5170 and 2900
- T1/2 ([1]; 3 mg/kg, individual monkeys): 5 h
- AUCinf Extrapolated ([1]; 10 mg/kg, Mean of group): 1.3%
- CL ([1]; 10 mg/kg, Mean of group): 6.32 mL/min/kg
- Dose Normalized AUClast ([1]; 10 mg/kg, Mean of group): 5030
- Dose Normalized Cmax ([1]; 10 mg/kg, Mean of group): 3820
- T1/2 ([1]; 10 mg/kg, Mean of group): 4.6 h
- AUCinf Extrapolated ([1]; 10 mg/kg, individual monkeys): 1.0% and 1.8% and 0.99%
- CL ([1]; 10 mg/kg, individual monkeys): 7.5 mL/min/kg
- Dose Normalized Cmax ([1]; 10 mg/kg, individual monkeys): 2600 and 2430 and 6430
- T1/2 ([1]; 10 mg/kg, individual monkeys): 4.3 h and 4.9 h and 4.6 h
- level at 0 h (clinical; [3]): 6.03 ng/mL
- level at 0.5 h (clinical; [3]): 166 ng/mL
- level at 21 h (clinical; [3]): 12.6 ng/mL
- level at 37 h (clinical; [3]): 6.59 ng/mL
- level at 0 h (clinical; [4]): 6.03 ng/mL
- level at 0.5 h (clinical; [4]): 166 ng/mL
- level at 21 h (clinical; [4]): 12.6 ng/mL
- level at 37 h (clinical; [4]): 6.59 ng/mL
- level at 0 h (clinical; [5]): 1.01 ng/mL
- level at 0.5 h (clinical; [5]): 189 ng/mL
- level at 1 h (clinical; [5]): 256 ng/mL
- level at 2 h (clinical; [5]): 108 ng/mL
- level at 3 h (clinical; [5]): 96.4 ng/mL
- level at 5 h (clinical; [5]): 79.5 ng/mL
- level at 7 h (clinical; [5]): 62.5 ng/mL
- level at 9 h (clinical; [5]): 56.9 ng/mL
- level at 13 h (clinical; [5]): 31.5 ng/mL
- level at 21 h (clinical; [5]): 15.4 ng/mL
- level at 25 h (clinical; [5]): 14.8 ng/mL
- level at 37 h (clinical; [5]): 1.1 ng/mL
- level at […] (clinical; [5]): 134 ng/mL
- level at 0 h (clinical; [6]): 1.01 ng/mL
- level at 0.5 h (clinical; [6]): 189 ng/mL
- level at 1 h (clinical; [6]): 256 ng/mL
- level at 2 h (clinical; [6]): 108 ng/mL
- level at 3 h (clinical; [6]): 96.4 ng/mL
- level at 5 h (clinical; [6]): 79.5 ng/mL
- level at 7 h (clinical; [6]): 62.5 ng/mL
- level at 9 h (clinical; [6]): 56.9 ng/mL
- level at 13 h (clinical; [6]): 31.5 ng/mL
- level at 21 h (clinical; [6]): 15.4 ng/mL
- level at 25 h (clinical; [6]): 14.8 ng/mL
- level at 37 h (clinical; [6]): 1.1 ng/mL
- level at […] (clinical; [6]): 134 ng/mL
- level at 50 h (clinical; 0.5 mg/kg, Cohort 4, 0.5 mg/kg IV 2-hr infusion, individual subject): 45.9 ng/mL
- level at 1 h (clinical; [7]): 1210 ng/mL
- level at 2 h (clinical; [7]): 1830 ng/mL
- level at 3 h (clinical; [7]): 616 ng/mL
- level at 4 h (clinical; [7]): 451 ng/mL
- level at 6 h (clinical; [7]): 330 ng/mL
- level at 8 h (clinical; [7]): 249 ng/mL
- level at 10 h (clinical; [7]): 219 ng/mL
- level at 14 h (clinical; [7]): 134 ng/mL
- level at 22 h (clinical; [7]): 76.3 ng/mL
- level at 26 h (clinical; [7]): 72.5 ng/mL
- level at 38 h (clinical; [7]): 41.2 ng/mL
- level at 50 h (clinical; [7]): 25.7 ng/mL
- level at […] (clinical; [7]): 877 ng/mL
- level at 1 h (clinical; [8]): 1210 ng/mL
- level at 2 h (clinical; [8]): 1830 ng/mL
- level at 3 h (clinical; [8]): 616 ng/mL
- level at 4 h (clinical; [8]): 451 ng/mL
- level at 6 h (clinical; [8]): 330 ng/mL
- level at 8 h (clinical; [8]): 249 ng/mL
- level at 10 h (clinical; [8]): 219 ng/mL
- level at 14 h (clinical; [8]): 134 ng/mL
- level at 22 h (clinical; [8]): 76.3 ng/mL
- level at 26 h (clinical; [8]): 72.5 ng/mL
- level at 38 h (clinical; [8]): 41.2 ng/mL
- level at 50 h (clinical; [8]): 25.7 ng/mL
- level at […] (clinical; [8]): 877 ng/mL
- level at 2 h (clinical; [9]): 2040 ng/mL
- level at 4 h (clinical; [9]): 2650 ng/mL
- level at 5 h (clinical; [9]): 1350 ng/mL
- level at 6 h (clinical; [9]): 1130 ng/mL
- level at 8 h (clinical; [9]): 803 ng/mL
- level at 10 h (clinical; [9]): 604 ng/mL
- level at 12 h (clinical; 1 mg/kg, Mean, Cohort 5, 1 mg/kg IV 4-hr infusion, 12 h, cohort mean): 487 ng/mL
- level at 16 h (clinical; 1 mg/kg, Mean, Cohort 5, 1 mg/kg IV 4-hr infusion, 16 h, cohort mean): 287 ng/mL
- level at 24 h (clinical; 1 mg/kg, Mean, Cohort 5, 1 mg/kg IV 4-hr infusion, 24 h, cohort mean): 167 ng/mL
- level at 28 h (clinical; 1 mg/kg, Mean, Cohort 5, 1 mg/kg IV 4-hr infusion, 28 h, cohort mean): 180 ng/mL
- level at 40 h (clinical; 1 mg/kg, Mean, Cohort 5, 1 mg/kg IV 4-hr infusion, 40 h, cohort mean): 98.7 ng/mL
- level at 52 h (clinical; 1 mg/kg, Mean, Cohort 5, 1 mg/kg IV 4-hr infusion, 52 h, cohort mean): 99.6 ng/mL
- level at […] (clinical; [9]): 1810 ng/mL
- AUCinf ([2]; 3 mg/kg IV): <3500 ng·h/mL
- CL ([2]; 3 mg/kg IV): ~5 mL/min/kg
- Extrapolated ([2]; 3 mg/kg IV): ~0.5%
- MRT last ([2]; 3 mg/kg IV): ~0.5 h
- T1/2 ([2]; 3 mg/kg IV): ~8 h
- Vss ([2]; 3 mg/kg IV): ~0.2 L/kg
- Vz ([2]; 3 mg/kg IV): ~3 L/kg
- AUCinf_D ([2]; 15 mg/kg IV): 3589 kg·ng·h/mL/ng
- Extrapolated ([2]; 15 mg/kg IV): 0.49%

— patent US20240115654A1, “INTRAVENOUS ADMINISTRATION OF ENGINEERED ANTIMICROBIAL AMPHIPHILIC PEPTIDES” (priority 2021, published 2024)
